Laboratory results published in article PMC10538245, “Fragment merging approach for design, synthesis, and biological assessment of urea/acetyl hydrazide clubbed thienopyrimidine derivatives as GSK-3β inhibitors” (BMC Chemistry, 2023).

Tests used:
MDA-MB-231/ATCC = test: NCI 60-cell line one dose antiproliferative assay; format: cell-based; settings: Homo sapiens, Breast Cancer, 10 µM one dose, read-out: Percent inhibition (cell growth inhibition %)
Description: (§1) The National Cancer Institute "NCI", NIH, Bethesda, Maryland, USA (www.dtp.nci.nih.gov) chose six of the final compounds for the Developmental Therapeutic Program (DTP), codes (5a, 5b, 5c, 5d, 6a, 6b). The NCI screening service will favor compounds with drug-like modes of action based on computer-aided design. Selection The criterion for screening is the possibility of the submitted compounds to provide diversity to the NCI small molecule chemical collection. This screen employs 60 different Leukemia, melanoma, and additional tumor cell lines of the human from brain, kidney, lung, ovary, colon, breast, and prostate cancers. All compounds were picked based on their NCI codes. NSC: D-820696/1, NSC: D-820697/1, NSC: D-820698/1, NSC: D-820699/1, NSC: D-820700/1, NSC: D-820701/1. The initial 10 µM one dose percent inhibition assay was performed on the entire NCI 60 cell panel to examine the different chemotypes of this work. The results are presented as a percentage of cell growth on each of the 60 NCI cell line panels for each of the investigated substances in Table 2.
(§2) The NCI cancer screening procedure includes a comparison of all substances to the sixty NCI cell line panel representing leukemia, NSCLC, cell lines from breast cancer, prostate cancer, melanoma, CNS cancer, renal cancer, ovarian cancer, and colon cancer at a single point of 10 uM. The results of the single-dose screen can be presented using a mean graph.

LOX IMVI = test: NCI 60-cell line one dose antiproliferative assay; format: cell-based; settings: Homo sapiens, Melanoma, 10 µM one dose, read-out: Percent inhibition (cell growth inhibition %)
Description: as §1, §2

IGROV1 = test: NCI 60-cell line one dose antiproliferative assay; format: cell-based; settings: Homo sapiens, IGROV-1; IGROV1, Ovarian Cancer, 10 µM one dose; read-out: Percent inhibition (cell growth inhibition %)
Description: as §1, §2

MDA-MB-435 = test: NCI 60-cell line one dose antiproliferative assay; format: cell-based; settings: Homo sapiens; MDA-MB-435, Melanoma, 10 µM one dose; read-out: Percent inhibition (cell growth inhibition %)
Description: as §1, §2

K-562 = test: NCI 60-cell line one dose antiproliferative assay; format: cell-based; settings: Homo sapiens, K562; K-562, Leukemia, 10 µM one dose; read-out: Percent inhibition (cell growth inhibition %)
Description: as §1, §2

EKVX = test: NCI 60-cell line one dose antiproliferative assay; format: cell-based; settings: Homo sapiens, Non-Small Cell Lung Cancer, 10 µM one dose, read-out: Percent inhibition (cell growth inhibition %)
Description: as §1, §2

UACC-62 = test: NCI 60-cell line one dose antiproliferative assay; format: cell-based; settings: Homo sapiens; UACC-62, Melanoma, 10 µM one dose; read-out: Percent inhibition (cell growth inhibition %)
Description: as §1, §2

UO-31 = test: NCI 60-cell line one dose antiproliferative assay; format: cell-based; settings: Homo sapiens; UO-31, Renal Cancer, 10 µM one dose; read-out: Percent inhibition (cell growth inhibition %)
Description: as §1, §2

NCI-H522 = test: NCI 60-cell line one dose antiproliferative assay; format: cell-based; settings: Homo sapiens; NCI-H522, Non-Small Cell Lung Cancer, 10 µM one dose; read-out: Percent inhibition (cell growth inhibition %)
Description: as §1, §2

SR = test: NCI 60-cell line one dose antiproliferative assay; format: cell-based; settings: Homo sapiens, Leukemia, 10 µM one dose, read-out: Percent inhibition (cell growth inhibition %)
Description: as §1, §2

CAKI-1 = test: NCI 60-cell line one dose antiproliferative assay; format: cell-based; settings: Homo sapiens; CAKI-1, Renal Cancer, 10 µM one dose; read-out: Percent inhibition (cell growth inhibition %)
Description: as §1, §2

HS 578 T = test: NCI 60-cell line one dose antiproliferative assay; format: cell-based; settings: Homo sapiens, Breast Cancer, 10 µM one dose, read-out: Percent inhibition (cell growth inhibition %)
Description: as §1, §2

U251 = test: NCI 60-cell line one dose antiproliferative assay; format: cell-based; settings: Homo sapiens, U-251; U251, CNS Cancer, 10 µM one dose; read-out: Percent inhibition (cell growth inhibition %)
Description: as §1, §2

MCF7 = test: NCI 60-cell line one dose antiproliferative assay; format: cell-based; settings: Homo sapiens; MCF7, Breast Cancer, 10 µM one dose; read-out: Percent inhibition (cell growth inhibition %)
Description: as §1, §2

786–0 = test: NCI 60-cell line one dose antiproliferative assay; format: cell-based; settings: Homo sapiens; 786–0, Renal Cancer, 10 µM one dose; read-out: Percent inhibition (cell growth inhibition %)
Description: as §1, §2

OVCAR-5 = test: NCI 60-cell line one dose antiproliferative assay; format: cell-based; settings: Homo sapiens; OVCAR-5, Ovarian Cancer, 10 µM one dose; read-out: Percent inhibition (cell growth inhibition %)
Description: as §1, §2

SNB-75 = test: NCI 60-cell line one dose antiproliferative assay; format: cell-based; settings: Homo sapiens; SNB-75, CNS Cancer, 10 µM one dose; read-out: Percent inhibition (cell growth inhibition %)
Description: as §1, §2

MOLT-4 = test: NCI 60-cell line one dose antiproliferative assay; format: cell-based; settings: Homo sapiens; MOLT-4, Leukemia, 10 µM one dose; read-out: Percent inhibition (cell growth inhibition %)
Description: as §1, §2

SF-539 = test: NCI 60-cell line one dose antiproliferative assay; format: cell-based; settings: Homo sapiens; SF-539, CNS Cancer, 10 µM one dose; read-out: Percent inhibition (cell growth inhibition %)
Description: as §1, §2

SF-268 = test: NCI 60-cell line one dose antiproliferative assay; format: cell-based; settings: Homo sapiens; SF-268, CNS Cancer, 10 µM one dose; read-out: Percent inhibition (cell growth inhibition %)
Description: as §1, §2

A549/ ATCC = test: NCI 60-cell line one dose antiproliferative assay; format: cell-based; settings: Homo sapiens, Non-Small Cell Lung Cancer, 10 µM one dose, read-out: Percent inhibition (cell growth inhibition %)
Description: as §1, §2

SN12C = test: NCI 60-cell line one dose antiproliferative assay; format: cell-based; settings: Homo sapiens, Renal Cancer, 10 µM one dose, read-out: Percent inhibition (cell growth inhibition %)
Description: as §1, §2

NCI-H23 = test: NCI 60-cell line one dose antiproliferative assay; format: cell-based; settings: Homo sapiens; NCI-H23, Non-Small Cell Lung Cancer, 10 µM one dose; read-out: Percent inhibition (cell growth inhibition %)
Description: as §1, §2

SNB-19 = test: NCI 60-cell line one dose antiproliferative assay; format: cell-based; settings: Homo sapiens; SNB-19, CNS Cancer, 10 µM one dose; read-out: Percent inhibition (cell growth inhibition %)
Description: as §1, §2

HCT-116 = test: NCI 60-cell line one dose antiproliferative assay; format: cell-based; settings: Homo sapiens; HCT-116, Colon Cancer, 10 µM one dose; read-out: Percent inhibition (cell growth inhibition %)
Description: as §1, §2

A498 = test: NCI 60-cell line one dose antiproliferative assay; format: cell-based; settings: Homo sapiens; A498, Renal Cancer, 10 µM one dose; read-out: Percent inhibition (cell growth inhibition %)
Description: as §1, §2

BT-549 = test: NCI 60-cell line one dose antiproliferative assay; format: cell-based; settings: Homo sapiens; BT-549, Breast Cancer, 10 µM one dose; read-out: Percent inhibition (cell growth inhibition %)
Description: as §1, §2

GSK-3β = GSK-3β (Homo sapiens, UniProt P49841); test: GSK-3β kinase inhibition, Z'-LYTE FRET assay (Thermo Fisher SelectScreen); format: biochemical; settings: for inhibition at 100 µM: 100 μM single dose
SK-MEL-5 = test: NCI 60-cell line one dose antiproliferative assay; format: cell-based; settings: Homo sapiens; SK-MEL-5, Melanoma, 10 µM one dose; read-out: Percent inhibition (cell growth inhibition %)
Description: as §1, §2

ACHN = test: NCI 60-cell line one dose antiproliferative assay; format: cell-based; settings: Homo sapiens, Renal Cancer, 10 µM one dose, read-out: Percent inhibition (cell growth inhibition %)
Description: as §1, §2

M14 = test: NCI 60-cell line one dose antiproliferative assay; format: cell-based; settings: Homo sapiens; M14, Melanoma, 10 µM one dose; read-out: Percent inhibition (cell growth inhibition %)
Description: as §1, §2

PC-3 = test: NCI 60-cell line one dose antiproliferative assay; format: cell-based; settings: Homo sapiens; PC-3, Prostate Cancer, 10 µM one dose; read-out: Percent inhibition (cell growth inhibition %)
Description: as §1, §2

NCI-H226 = test: NCI 60-cell line one dose antiproliferative assay; format: cell-based; settings: Homo sapiens; NCI-H226, Non-Small Cell Lung Cancer, 10 µM one dose; read-out: Percent inhibition (cell growth inhibition %)
Description: as §1, §2

MALME-3 M = test: NCI 60-cell line one dose antiproliferative assay; format: cell-based; settings: Homo sapiens, Melanoma, 10 µM one dose, read-out: Percent inhibition (cell growth inhibition %)
Description: as §1, §2

T-47D = test: NCI 60-cell line one dose antiproliferative assay; format: cell-based; settings: Homo sapiens, T47D, Breast Cancer, 10 µM one dose, read-out: Percent inhibition (cell growth inhibition %)
Description: as §1, §2

SF-295 = test: NCI 60-cell line one dose antiproliferative assay; format: cell-based; settings: Homo sapiens; SF-295, CNS Cancer, 10 µM one dose; read-out: Percent inhibition (cell growth inhibition %)
Description: as §1, §2

HOP-92 = test: NCI 60-cell line one dose antiproliferative assay; format: cell-based; settings: Homo sapiens; HOP-92, Non-Small Cell Lung Cancer, 10 µM one dose; read-out: Percent inhibition (cell growth inhibition %)
Description: as §1, §2

Chain of GSK-3β (P49841 whole entry): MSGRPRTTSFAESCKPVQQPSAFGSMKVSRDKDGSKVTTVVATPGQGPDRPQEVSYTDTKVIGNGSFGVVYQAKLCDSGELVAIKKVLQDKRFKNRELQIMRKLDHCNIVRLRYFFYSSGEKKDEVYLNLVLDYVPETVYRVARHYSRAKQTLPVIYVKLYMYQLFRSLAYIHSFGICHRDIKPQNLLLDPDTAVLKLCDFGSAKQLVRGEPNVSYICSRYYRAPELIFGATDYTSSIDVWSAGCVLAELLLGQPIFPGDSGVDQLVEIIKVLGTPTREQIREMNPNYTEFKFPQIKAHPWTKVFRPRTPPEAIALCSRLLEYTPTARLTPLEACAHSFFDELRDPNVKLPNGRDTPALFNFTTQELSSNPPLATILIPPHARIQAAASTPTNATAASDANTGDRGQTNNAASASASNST

Compound	inhibition at 10 µM (MDA-MB-231/ATCC) [%]	inhibition at 10 µM (LOX IMVI) [%]	inhibition at 10 µM (IGROV1) [%]	inhibition at 10 µM (K-562) [%]	inhibition at 10 µM (UACC-62) [%]	inhibition at 10 µM (UO-31) [%]	inhibition at 10 µM (NCI-H522) [%]	inhibition at 10 µM (SR) [%]	inhibition at 10 µM (CAKI-1) [%]	inhibition at 10 µM (HS 578 T) [%]	inhibition at 10 µM (U251) [%]	inhibition at 10 µM (MCF7) [%]	inhibition at 10 µM (786–0) [%]	inhibition at 10 µM (OVCAR-5) [%]	inhibition at 10 µM (SNB-75) [%]	inhibition at 10 µM (SF-539) [%]	inhibition at 10 µM (SF-268) [%]	inhibition at 10 µM (SN12C) [%]	inhibition at 10 µM (SNB-19) [%]	inhibition at 10 µM (A498) [%]	also measured
O=C(COc1ncnc2sc3c(c12)CCCC3)NN=Cc1ccc(Br)cc1 [5c, N'-(4-Bromobenzylidene)-2-((5,6,7,8-tetrahydrobenzo[4,5]thieno[2,3-d]pyrimidin-4-yl)oxy)acetohydrazide]	11.2	3.68	2.52	13.5	6.58	16.6	10.3	8.29	16.7	7.31	6.99	8.67	5.22	10	13.6	1.02	5.08	3.09	5.53	21.3	inhibition at 10 µM (MDA-MB-435): 0.85%; inhibition at 10 µM (EKVX): 3.66%; inhibition at 10 µM (MOLT-4): 9.38%; inhibition at 10 µM (A549/ ATCC): 1.87%; inhibition at 10 µM (NCI-H23): 0.25%; inhibition at 10 µM (HCT-116): 3.24%; inhibition at 10 µM (BT-549): 2.58%; melting point: 290 to 292 °C; inhibition at 100 µM (GSK-3β): 43%
COc1ccc(C=NNC(=O)COc2ncnc3sc4c(c23)CCCC4)c(OC)c1OC [5a, 2-((5,6,7,8-Tetrahydrobenzo [4,5]thieno[2,3-d]pyrimidin-4-yl)oxy)-N'-(2,3,4-trimethoxybenzylidene) acetohydrazide]	6.61	4.82	1.47	7.93	8.06	23.3	5.39	2.15	7.04	7.21	0.3	10.7	0.81	5	28.5	5.93	0.3	5.91	6.88	11.8	inhibition at 10 µM (SK-MEL-5): 1.37%; inhibition at 10 µM (ACHN): 0.55%; inhibition at 10 µM (M14): 1.68%; inhibition at 10 µM (PC-3): 2.52%; inhibition at 10 µM (NCI-H226): 0.3%; inhibition at 10 µM (MALME-3 M): 2.96%; inhibition at 10 µM (T-47D): 4.24%; inhibition at 10 µM (SF-295): 0.79%; inhibition at 10 µM (HOP-92): 2.18%; melting point: 280 to 281 °C; inhibition at 10 µM (GSK-3β; 10 μM): 6%; inhibition at 100 µM (GSK-3β): 24%
